Entries after “also recorded” stand apart in the source; their conditions may differ. Where two headings read alike, the source gives them in different places.
How the values were obtained:
[1] = molecular target: T1, pig liver betaine-homocysteine methyltransferase (Sus scrofa, UniProt A0A5G2RCW6); experiment: Product inhibition of pig liver betaine-homocysteine methyltransferase activity; type: biochemical; conditions: for pmol methionine: inhibitor 50 μM, L-homocysteine 50 μM, betaine 25 μM
T1 construct: given as hexamer, now known as homotetramer
T1 sequence (A0A5G2RCW6 1-407): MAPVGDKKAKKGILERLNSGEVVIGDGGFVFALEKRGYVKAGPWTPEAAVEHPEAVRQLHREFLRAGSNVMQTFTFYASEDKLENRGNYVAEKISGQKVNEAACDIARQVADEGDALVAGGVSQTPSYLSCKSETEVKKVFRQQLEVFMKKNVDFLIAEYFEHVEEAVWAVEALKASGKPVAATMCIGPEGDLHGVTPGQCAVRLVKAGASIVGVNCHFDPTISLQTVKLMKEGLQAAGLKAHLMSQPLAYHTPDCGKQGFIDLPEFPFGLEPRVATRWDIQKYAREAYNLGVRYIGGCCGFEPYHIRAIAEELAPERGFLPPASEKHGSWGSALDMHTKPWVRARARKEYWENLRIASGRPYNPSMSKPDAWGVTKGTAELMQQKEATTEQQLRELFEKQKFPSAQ
Description: (§1) Betaine-homocysteine methyltransferase activity was measured as described by Finkelstein and Mudd (43) with the following minor modifications. […] Following a 2 hour incubation, samples were chilled to 0° C. and 2.5 mL ice-cold water was added. The samples were loaded onto a 0.5 cm (diameter) column containing 1 mL of Dowex 1-X4 (OH--) resin (100-200 mesh). The unreacted betaine (or dimethylacetothetin) was washed from the column with water (3×5 mL), and dimethylglycine (or methylthioacetate) and methionine eluted into scintiallation vials with 3 mL 1.5 N HCl. Blanks contained all of the reaction components except enzyme and their values were subtracted from the sample values. All samples were assayed in duplicate.
The subsequent metabolism of these products could have significant effects on flux through the betaine-homocysteine methyltransferase reaction because the rate of product removal would determine whether a product accumulates enough to inhibit enzyme activity. When pharmacological doses of betaine is used for the treatment of severe hyperhomocyst(e)inemia, dimethylglycine oxidation appears to be insufficient, and as a result, dimethylglycine accumulates.
Inhibition pf pig liver betaine-homocysteine methyltransferase
activity by dimethyglycine ethylthoacetate in the presence of
It is possible that homocysteine, dimethylglycine, and betaine-homocysteine methyltransferase form an abortive ternary complex.

cystathionine-β-synthase = conditions: dietary cysteine increased; cited from earlier work
[2] = high dietary levels; cited from earlier work
[3] = tested on: hepatic betaine-homocysteine methyltransferase; conditions: surfeit dietary levels, crude liver extracts, compared to control; cited from earlier work
[4] = sulfur amino acid intake optimal; cited from earlier work
[5] = tested on: human betaine-homocysteine methyltransferase; conditions: cited from earlier work
[6] = cited from earlier work; for urinary level during betaine treatment: urine
[7] = tested on: rat betaine-homocysteine methyltransferase; conditions: cited from earlier work
growing rats = conditions: cited from earlier work; for replacement of dietary requirement for choline: growing rats, diets lacking methionine but containing homocystine; for food intake and growth: thetins 0.5-0.93% (w/w) of the diet, 3 to 4 weeks
[8] = molecular target: T1, pig liver betaine-homocysteine methyltransferase; experiment: Initial rate kinetics of purified pig liver betaine-homocysteine methyltransferase; type: biochemical; conditions: for Vmax(rel): Table II, relative, corrected for an equivalent amount of enzyme
Description: as §1
Michealis and Vmax constants were estimated from plotting initial rate data according to the method of Hanes (44).
Betaine-homocysteine methyltransferase has been purified to homogeneity from pig liver (45).
Using purified enzyme, initial rate studies were performed to determine the Michaelis constants of betaine, dimethylacetothetin, and homocysteine and to investigate the kinetic mechanism of the enzyme.

animals = conditions: prior studies; cited from earlier work
Escherichia coli = conditions: cited from earlier work
[9] = tested on: horse betaine-homocysteine methyltrasferase; conditions: saturating levels of substrate; purified horse enzyme; cited from earlier work
[10] = tested on: betaine-homocysteine methyltransferase; conditions: cited from earlier work; for methionine produced compared with betaine as methyl donor: saturating levels of substrates, corrected for enzyme concentration
[11] = tested on: rat betaine-homocysteine methyltransferase; conditions: rat enzyme containing extracts; read-out: Michealis constant; cited from earlier work
chickens [12] = conditions: cited from earlier work
[13] = tested on: human betaine-homocysteine methyltransferase; conditions: human enzyme containing extracts; read-out: Michealis constant; cited from earlier work
pigs = conditions: dietary betaine; cited from earlier work
chickens [14] = conditions: dietary; cited from earlier work
[15] = tested on: cystathionine-β-synthase deficiency; conditions: cited from earlier work
primates = conditions: infusion, 3 month period; cited from earlier work
[16] = substrate: C[S+](C)CC(=O)O; experiment: Initial rate kinetics of purified pig liver betaine-homocysteine methyltransferase; type: biochemical; conditions: other: saturating levels of one substrate while varying the other; betaine 250 μM or L-homocysteine 500 μM fixed
Description: (§2) Betaine-homocysteine methyltransferase activity was measured as described by Finkelstein and Mudd (43) with the following minor modifications. […] Following a 2 hour incubation, samples were chilled to 0° C. and 2.5 mL ice-cold water was added. The samples were loaded onto a 0.5 cm (diameter) column containing 1 mL of Dowex 1-X4 (OH--) resin (100-200 mesh). […] Blanks contained all of the reaction components except enzyme and their values were subtracted from the sample values. All samples were assayed in duplicate.

[17] = substrate: C[N+](C)(C)CC(=O)O; experiment: as above; type: biochemical; conditions: other: saturating levels of one substrate while varying the other; betaine 250 μM or L-homocysteine 500 μM fixed
Description: as §2

[18] = substrate: N[C@@H](CCS)C(=O)O; experiment: purified protein, by the assay type; conditions: other: saturating levels of one substrate while varying the other; betaine 250 μM or L-homocysteine 500 μM fixed

## CSCC(=O)O [methylthioacetate]
[1]
  activity at 50 µM: 59%
  pmol methionine: 416 pmol
[1]; than dimethylglycine
  affinity for betaine-homocysteine methyltransferase relative to dimethylglycine: lower affinity

## N[C@@H](CS)C(=O)O [cysteine]
cystathionine-β-synthase
  cystathionine-β-synthase activity and mRNA levels: decrease

## CSCC[C@H](N)C(=O)O [methionine]
[2]
  toxicity: most toxic of all amino acids required for protein synthesis
[3]
  hepatic betaine-homocysteine methyltransferase activity: higher levels of betaine-homocysteine methyltransferase activity
[4]
  absorbed methionine converted to cysteine or completely oxidized: about 30%
  absorbed methionine retained by the animal: about 70%

## CN(C)CC(=O)O [dimethylglycine]
[5]; 10 μM dimethylglycine
  inhibition of methionine production: 50%
[5]
  inhibition of human betaine-homocysteine methyltransferase: potent inhibitor
[1]
  activity at 50 µM: 30%
  pmol methionine: 208 pmol
[1]; Dixon plots, betaine 25 μM or 250 μM, L-homocysteine varied
  type of inhibition relative to homocysteine: uncompetitive inhibitor; also recorded: uncompetitive inhibition
[1]; product inhibition studies
  inhibition of pig betaine-homocysteine methyltransferase: potent inhibitor
[6]
  urinary level during betaine treatment: dramatic increase
[7]
  inhibition of rat betaine-homocysteine methyltransferase: potent inhibitor

## C[S+](C)CC(=O)O [dimethylacetothetin]
Growing rats
  replacement of dietary requirement for choline: can replace the dietary requirement for choline; also recorded: replace the dietary requirement for choline (or betaine)
[8]
  Vmax(rel): 7
[8]; equimolar concentrations as betaine, inferred from Vmax/Km
  rate of methylation of homocysteine, faster than with betaine: at least 700%
[8]; greater than that for betaine
  Vmax/Km compared with betaine: 7 fold
[8]; greater than when betaine was used
  relative Vmax compared with betaine: 47 fold
[8]; initial rate studies
  specificity (Vmax/Km) compared with betaine: greater specificity
animals
  toxicity to animals: non-toxic to animals
Escherichia coli
  effectiveness as osmolyte compared with betaine: equally effective as betaine
[9]
  increase in methionine production compared to betaine: 350 fold
[10]
  methionine produced compared with betaine as methyl donor: more methionine was produced

## C[N+](C)(C)CC(=O)O [betaine]
Growing rats
  replacement of dietary requirement for choline: can replace the dietary requirement for choline
  food intake and growth: not different among experimental groups
[8]
  Vmax(rel): 1
[3]
  hepatic betaine-homocysteine methyltransferase activity: higher levels of betaine-homocysteine methyltransferase activity
[11]
  Km: 25 to 50 µM
[6]; betaine treatment of severe hyperhomocyst(e)inemia
  normalization of plasma homocysteine: rarely attained; also recorded: usually does not fall within the normal range; also recorded: does not usually lower plasma homocysteine to within the normal range
[6]; pharmacological doses of betaine, hyperhomocyst(e)inemia
  plasma homocysteine: reduce plasma homocysteine; also recorded: generally lowers plasma homocysteine compared to pretreatment levels
[6]
  urinary level during betaine treatment: dramatic increase
[10]
  Kcat of betaine-dependent reaction: very low Kcat
[10]; prior studies, source of enzyme not stated
  Km: 20 to 50 µM
Chickens [12]; dietary betaine, chickens
  carcass fat: can reduce carcass fat
Chickens [12]; fowl
  treatment of diarrhea and wet litter: effective in the treatment of diarrhea and wet litter
[13]
  Km: 25 to 50 µM
pigs
  carcass fat: can reduce carcass fat

## O=S(=O)(O)O [sulfate]
Chickens [14]
  cystine requirements: decrease cystine requirements

## C[N+](C)(C)CCO [choline]
Growing rats
  food intake and growth: not different among experimental groups

## C[S+](C)CCC(=O)O [dimethylpropiothetin]
Growing rats; listed as dimethylpropriothetin
  replacement of dietary requirement for choline: can replace the dietary requirement for choline; also recorded: replace the dietary requirement for choline (or betaine)
animals
  toxicity to animals: non-toxic to animals
[9]
  increase in methionine production compared to betaine: 54 fold
[10]; previous studies
  Vmax compared with betaine-dependent reaction: higher Vmax
  Vmax compared with dimethylacetothetin-dependent reaction: lower Vmax
[10]
  methionine produced compared with betaine as methyl donor: more methionine was produced

## vitamin B6
[15]
  individuals non-responsive to vitamin B6: 50%
  individuals responding to supplemental B6: approximately 50%

## CSCCC(=O)O [3-methylthiopropionate]
[2]
  toxicity: produces toxic symptoms identical to those produced by excess methionine consumption

## N[C@@H](CCS)C(=O)O [homocysteine]
[11]
  Km: 25 to 50 µM
primates
  vascular lesions: vascular lesions have been induced in primates
[13]
  Km: 25 to 50 µM

B1: pig liver betaine-homocysteine methyltransferase (Sus scrofa) (protein)
chain: T1 sequence (A0A5G2RCW6 1-407)
notes: given as hexamer, now known as homotetramer
[16]
  Km: 155 µM
[17]
  Km: 23 µM
[18]
  Km: 32 µM

From patent US5668173A, “Method of increasing the conversion of homocysteine to methionine and uses thereof” (priority 1996, dated 1997)
